{"source": "patent US12011474B2", "about": "“Composition comprising a mixture of molecules extracted from Chrysanthellum indicum, Cynara scolymus and Lycium barbarum and use to act on carbohydrate and/or fat metabolism” (VALBIOTIS, priority 2015, dated 2024)", "test_system": "db/db mice", "experiment": "Fasting blood glucose in db/db mice", "type": "in vivo", "settings": "same db/db model, separate experiment with younger mice, control group 414 mg/dL", "from_the_text": "The experiments were done on db/db mice.\nThe experimental time was 9 weeks with a “Run-in” of 1 week followed by 8 weeks of supplementation with the plant extracts and a composition X. The male mice were 10 weeks old at the beginning of treatment.\nThe experimental assessments in particular pertained to: • The measurement of the serous lipids (total cholesterol, LDL cholesterol, triglycerides); • The evolution of the blood glucose during an oral sensitivity test to insulin. This test consisted of an intraperitoneal injection of insulin (2 U/kg) on an empty stomach. The evolution of the blood glucose in response to the insulin injection was measured in the tail by biopsy just before the injection (t0), then after 30, 60, 90 and 120 minutes. The area under the curve (AUC) was calculated. A decrease in the AUC reflects a better response to the insulin injection, and therefore improved insulin sensitivity. Conversely, an increase in the AUC reflects a lower quality sensitivity to the insulin, and therefore insulin resistance; • The measurement of the fasting blood glucose.\nThe evaluations presented were done just before the supplementation (t=0) and at the end of supplementation (t=8 weeks)."}
{"smiles": "CN(C)C(=N)N=C(N)N", "note": "[metformin]", "values": [{"measurement": "Fasting blood glucose", "value": 463, "unit": "mg/d L"}, {"measurement": "Increase of fasting blood glucose versus control group", "value": 11, "unit": "%"}]}
